Reference: patent US20220056037A1 (SPV THERAPEUTICS INC., priority 2018, published 2022)

Tests used:
Test in all cases: 2D cell proliferation assay (CellTiter-Blue)
Format in all cases: cell-based
CNXF U-87 MG = settings: Homo sapiens, 72 h; cell line CNXF U-87 MG; three days of treatment; read-out: IC (abs. IC50)
Protocol: (§1) Viability of the cells was analyzed by using the CellTiter-Blue® Cell Viability Assay (Promega), and was performed according to manufacturer's instructions. Briefly, cells were harvested from exponential phase cultures (Chapter 6.6), counted and plated in 96-well flat-bottom microtiter plates at a cell density of 4,000-60,000 cells/well in a volume of 140 μl per well. After a 24 hours recovery period, 10 μL cell culture medium (six control wells/plate) or culture medium with test compound were added (Chapter 6.2). The compounds were applied at five concentrations in full-log increments up to 100 μM in duplicate. Cultures were incubated at 37° C. and 5% CO2 in a humidified atmosphere for another three days. After three days of treatment, 20 μl/well CellTiter-Blue® reagent was added. Following incubation with CellTiter-Blue® reagent for up to four hours, fluorescence (FU) was measured by using the Enspire Multimode Plate Reader (excitation λ=570 nm, emission λ=600 nm). For calculations, the mean values of duplicate/sextuplicate (untreated control) data were used.
(§2) Drug effects were expressed in terms of the percentage of the fluorescence signal, obtained by comparison of the mean signal in the treated wells with the mean signal of the untreated controls (expressed by the test-versus-control value, T/C-value [%]):
(§3) IC values are reported as relative IC50 values and absolute IC50 and IC70 values. […] The absolute IC70 value gives the concentration of the test compound that achieves T/C=30%. The relative IC50 value is the concentration of test compound that gives a response half way between the top and bottom plateau of the sigmoidal concentration-response curve (inflection point of the curve). Calculation was done by 4parameter non-linear curve fit (Oncotest Data Warehouse Software).
(§4) If an IC50 or IC70 value could not be determined within the examined dose range (because a compound was either too active or lacked activity), the lowest or highest concentration studied was used for calculation of the geometric mean value.
(§5) The overall potency of a compound was determined by the geometric mean IC50/IC70 values of all individual IC50/IC70 values. In the heatmap representation of IC50 and IC70 values, the distribution of the IC50 or IC70 values obtained for a test compound in the individual cell lines is given in relation to the geometric mean […] or IC70 value, obtained over all PDX models tested. The individual IC values range from 1/32-fold geometric mean IC (corresponding to very potent compound activity or high tumor sensitivity) to 32-fold geometric mean IC (corresponding to lack of compound activity or tumor resistance). The heatmap presentation, therefore, represents an antiproliferative “fingerprint” profile of a test compound.

CXF Caco-2 = settings: Homo sapiens, 72 h; cell line CXF Caco-2; three days of treatment; read-out: IC (abs. IC50)
Protocol: as §1, §2, §3, §4, §5

CXF HCT-15 = settings: Homo sapiens, 72 h; cell line CXF HCT-15; three days of treatment; read-out: IC (abs. IC50)
Protocol: as §1, §2, §3, §4, §5

LEXFAL MOLT-4 = settings: Homo sapiens, 72 h; cell line LEXFAL MOLT-4; three days of treatment; read-out: IC (abs. IC50)
Protocol: as §1, §2, §3, §4, §5

LEXFAM MV4-11 = settings: Homo sapiens, 72 h; cell line LEXFAM MV4-11; three days of treatment; read-out: IC (abs. IC50)
Protocol: as §1, §2, §3, §4, §5

LEXFCL MEC-1 = settings: Homo sapiens, MEC1, 72 h; cell line LEXFCL MEC-1; three days of treatment; read-out: IC (abs. IC50)
Protocol: as §1, §2, §3, §4, §5

LIXAH SNU-398 = settings: Homo sapiens, 72 h; cell line LIXAH SNU-398; three days of treatment; read-out: IC (abs. IC50)
Protocol: as §1, §2, §3, §4, §5

LIXFH Hep G2 = settings: Homo sapiens, HepG2, 72 h; cell line LIXFH Hep G2; three days of treatment; read-out: IC (abs. IC50)
Protocol: as §1, §2, §3, §4, §5

LXFA NCI-H1975 = settings: Homo sapiens, 72 h; cell line LXFA NCI-H1975; three days of treatment; read-out: IC (abs. IC50)
Protocol: as §1, §2, §3, §4, §5

MAXFTN MDA-MB-231 (ER −) = settings: Homo sapiens, 72 h; cell line MAXFTN MDA-MB-231 (ER −); three days of treatment; read-out: IC (abs. IC50)
Protocol: as §1, §2, §3, §4, §5

MAXFTN MDA-MB-468 (ER −) = settings: Homo sapiens, 72 h; cell line MAXFTN MDA-MB-468 (ER −); three days of treatment; read-out: IC (abs. IC50)
Protocol: as §1, §2, §3, §4, §5

MEXF A-375 = settings: Homo sapiens, 72 h; cell line MEXF A-375; three days of treatment; read-out: IC (abs. IC50)
Protocol: as §1, §2, §3, §4, §5

MEXF M14 = settings: 72 h; cell line MEXF M14; three days of treatment; read-out: IC (abs. IC50)
Protocol: as §1, §2, §3, §4, §5

MEXF MDA-MB-435 = settings: Homo sapiens, 72 h; cell line MEXF MDA-MB-435; three days of treatment; read-out: IC (abs. IC50)
Protocol: as §1, §2, §3, §4, §5

MEXF WM-266-4 = settings: Homo sapiens, 72 h; cell line MEXF WM-266-4; three days of treatment; read-out: IC (abs. IC50)
Protocol: as §1, §2, §3, §4, §5

MMXF U-266 = settings: Homo sapiens, 72 h; cell line MMXF U-266; three days of treatment; read-out: IC (abs. IC50)
Protocol: as §1, §2, §3, §4, §5

UXF EFE-184 = settings: Homo sapiens, 72 h; cell line UXF EFE-184; three days of treatment; read-out: IC (abs. IC50)
Protocol: as §1, §2, §3, §4, §5

UXF MFE-319 = settings: 72 h; cell line UXF MFE-319; three days of treatment; read-out: IC (abs. IC50)
Protocol: as §1, §2, §3, §4, §5

Work on CN1CCN(c2ccc(Nc3ncc4cc(C(=O)N(C)C)n(C56CC(C5)C6)c4n3)cc2)CC1 [SPV113] yielded an IC50 (CNXF U-87 MG) of 100000 nM, an IC50 (CXF Caco-2) of no less than 100000 nM and an IC50 (CXF HCT-15) of 202 nM. For the same compound, the IC50 (LEXFAL MOLT-4) was 567 nM, the IC50 (LEXFAM MV4-11) was no more than 10 nM and the IC50 (LEXFCL MEC-1) was no more than 10 nM. The IC50 (LIXAH SNU-398) was 148 nM, the IC50 (LIXFH Hep G2) was 124 nM and the IC50 (LXFA NCI-H1975) was 122 nM. The IC50 (MAXFTN MDA-MB-231 (ER −)) was 340 nM, the IC50 (MAXFTN MDA-MB-468 (ER −)) was 290 nM and the IC50 (MEXF A-375) was 101 nM. It also gave an IC50 (MEXF M14) of 1010 nM, an IC50 (MEXF MDA-MB-435) of 296 nM and an IC50 (MEXF WM-266-4) of 3300 nM. For the same compound, the IC50 (MMXF U-266) was 655 nM, the IC50 (UXF EFE-184) was 906 nM and the IC50 (UXF MFE-319) was 667 nM.
